Measurements reported in patent US20210017607A1, “Methods of Predicting Responsiveness to Cancer Therapies” (The University of Chicago, priority 2019, published 2021).

Experiments:
[1] = test system: Myc-CAP (STING^lo) tumors; experiment: Myc-CAP syngeneic tumor growth; type: in vivo, mouse; conditions: immunocompetent syngeneic mice
Protocol: FIGS. 25A and 25B. […] (25A-25B) Myc-CAP (STING^lo) tumor-bearing syngeneic mice were treated with the indicated drug(s) until untreated tumors reached approx. 2500 mm^3. Tumor volume curves for duration of treatment are shown.
FIGS. 26A-26D. […] Immunodeficient athymic nude (26A) and NOD-SCID (26B) mice were engrafted with Myc-CAP (STING^lo) tumors and treated with the indicated drug(s) until untreated tumors reached approx. 2000 mm^3. Tumor volume curves for duration of treatment are shown. For 26A-26B, n=3-4 mice per group. (26C-26D) Single-cell suspensions were generated from harvested tumors and analyzed by flow cytometry for the indicated immune cell populations and their activation states. Data are represented relative to CD45+ immune cells. For 26C-26D, n=3-5 animals per treatment group from 2 independent experiments. Significance/p-values were calculated by […].
FIGS. 29A-29M. […] Myc-CAP cancer cells were treated with the indicated drugs singly or in combination for 36 hours. (29A) Cells were stained with anti-mouse specific p-γH2AX antibody and a fluorescently labeled secondary antibody for determination of DNA DSBs, which were quantified by confocal microscopy. (29B) Protein extracts from cells in 29A were analyzed for the indicated pharmacodynamic biomarkers by western blotting; (29C) Annexin V-PI staining was done to assess frequency of live cells (Annexin V^− PI^−) following drug treatment. (29D) Ultracentrifugation was utilized to purify microvesicles (MVs) from supernatants in treatment groups in (29A) and associated DNA DSBs was quantified by Nanodrop®. Independent experiments n=2. (29E) Ultracentrifugation was utilized to purify MVs from supernatants in indicated treatment groups in FIG. 17A, and associated DNA DSBs were quantified by Nanodrop®; n=2 independent experiments. (29F) Syngeneic mice were engrafted with Myc-CAP (STING^lo) cells, and tumors were harvested when the tumor volume reached 400 mm^3. Single cell suspensions of the tumors were treated with the indicated drug(s), in the presence or absence of GW4869 (MV biogenesis inhibitor). (29G) Bone marrow derived macrophage (BMDMs) were co-cultured for 30 hours with supernatants (−/+ exogenous 50 units of DNase I pre-treatment for 30 minutes) from Myc-CAP cells that were treated with the indicated drug(s) for 36 hours. (29H) cGAMP (10 μg/mL) was pre-incubated with 10 units of DNAse I or mock control for 30 minutes and then added to BMDMs for 30 hours. (29I-29L) STING^+/+/STING^−/− BMDMs were co-cultured for 36 hours with supernatants from Myc-CAP and B6-Myc cancer cells that were treated with the indicated drug(s) for 36 hours. Supernatants were collected from 29F-29L at the end of treatment and analyzed for IFNβ1 by ELISA. (29M) Myc-CAP (STING^lo) tumor-bearing mice were treated with the indicated drug(s) until tumors first reached approx. 2500 mm^3. For the degerelix/rucaparib/buparlisib combination, additional cohorts of mice underwent concomitant treatment with STING antagonist H-151 or GW4869. Tumor volume was recorded daily for duration of experiment. For in vitro experiments, n=2 independent experiments and for in vivo experiments n=3-4 animals /group.

Myc-CAP (STING^lo) cells = experiment: Annexin V-PI viability assay; type: cell-based, mouse; conditions: rucaparib 500 nM, buparlisib 1 μM, singly and in combination
From the text: FIGS. 29A-29M. PARPi alone induces DNA DSBs, but not apoptosis even in combination with PI3Ki in Myc-CAP (STING^lo) cancer cells; PARPi/PI3Ki combination induces intracellular DNA DSBs and proportionate release of MV surface-associated DNA DSBs from B6-Myc (STINGhi) cancer cells without affecting cellular viability; PARPi/PI3K treatment activates tumor-cell extrinsic cGAS/STING pathway within TAMs in vivo via MV surface-associated DNA DSBs released from tumor cells. Myc-CAP cancer cells were treated with the indicated drugs singly or in combination for 36 hours. (29A) Cells were stained with anti-mouse specific p-γH2AX antibody and a fluorescently labeled secondary antibody for determination of DNA DSBs, which were quantified by confocal microscopy. (29B) Protein extracts from cells in 29A were analyzed for the indicated pharmacodynamic biomarkers by western blotting; (29C) Annexin V-PI staining was done to assess frequency of live cells (Annexin V^− PI^−) following drug treatment. (29D) Ultracentrifugation was utilized to purify microvesicles (MVs) from supernatants in treatment groups in (29A) and associated DNA DSBs was quantified by Nanodrop®. Independent experiments n=2. (29E) Ultracentrifugation was utilized to purify MVs from supernatants in indicated treatment groups in FIG. 17A, and associated DNA DSBs were quantified by Nanodrop®; n=2 independent experiments. […]

Question: Which results are given for `CNCc1ccc(-c2[nH]c3cc(F)cc4c3c2CCNC4=O)cc1` [rucaparib]?
Answer: tumor growth response [1]: not observed; viability of cells (Myc-CAP (STING^lo) cells): no change in the viability

Question: How did the tumor growth response [1] turn out when `Nc1cc(C(F)(F)F)c(-c2cc(N3CCOCC3)nc(N3CCOCC3)n2)cn1` [buparlisib] was run?
Answer: The tumor growth response was “not observed”.

Question: And the viability of cells (Myc-CAP (STING^lo) cells)?
Answer: Its viability of cells is “no change in the viability”.
